Experimental data reported in the supplement of paper PMC8882468.

What follows are molecules tested on HCI-025 (organoid from a breast cancer xenograft) (assay: CTG-3D luminescence at 96 h relative to day-0 seeding control (ratio to day 0); higher = more growth / less cytotoxicity; PDxO 3D drug screen (set 2), 96 h, CTG-3D normalised to day-0 seeding control.). Details: 625 fM; days in culture: 224.

Row | Structure (SMILES) | CTG-3D luminescence at 96 h
1 | CS(=O)(=O)CCNCc1ccc(-c2ccc3ncnc(Nc4ccc(OCc5cccc(F)c5)c(Cl)c4)c3c2)o1 [lapatinib] | 1.83
2 | CCOc1ccn(-c2ccc(F)cc2)c(=O)c1C(=O)Nc1ccc(Oc2ccnc(N)c2Cl)c(F)c1 [ASLAN002] | 1.86
3 | Nc1cc(C(F)(F)F)c(-c2cc(N3CCOCC3)nc(N3CCOCC3)n2)cn1 [buparlisib] | 1.69

These molecules were tested on HCI-019 (organoid from a triple-negative breast cancer xenograft) in the same assay as above. Details: 12.5 pM; days in culture: 173.

Row | Structure (SMILES) | CTG-3D luminescence at 96 h
4 | CC(C)n1nc(-c2ccc3oc(N)nc3c2)c2c(N)ncnc21 [sapanisertib] | 2.61
5 | C[C@@H](Nc1cc(F)cc(F)c1)c1cc(C(=O)N(C)C)cc2c(=O)cc(N3CCOCC3)oc12 [AZD-8186] | 3.42
6 | CC(=O)c1c(C)c2cnc(Nc3ccc(N4CCNCC4)cn3)nc2n(C2CCCC2)c1=O [palbociclib] | 2.68
7 | Cc1c(CN2CCN(C(=O)[C@H](C)O)CC2)sc2c(N3CCOCC3)nc(-c3cnc(N)nc3)nc12 [apitolisib] | 2.46
8 | CS(=O)(=O)CCNCc1ccc(-c2ccc3ncnc(Nc4ccc(OCc5cccc(F)c5)c(Cl)c4)c3c2)o1 [lapatinib] | 1.7
9 | CCOc1ccn(-c2ccc(F)cc2)c(=O)c1C(=O)Nc1ccc(Oc2ccnc(N)c2Cl)c(F)c1 [ASLAN002] | 2.03
10 | Nc1cc(C(F)(F)F)c(-c2cc(N3CCOCC3)nc(N3CCOCC3)n2)cn1 [buparlisib] | 2.34

Same assay, conditions: 12.5 pM; days in culture: 194

Row | Structure (SMILES) | CTG-3D luminescence at 96 h
11 | CC(C)n1nc(-c2ccc3oc(N)nc3c2)c2c(N)ncnc21 [sapanisertib] | 1.66
12 | C[C@@H](Nc1cc(F)cc(F)c1)c1cc(C(=O)N(C)C)cc2c(=O)cc(N3CCOCC3)oc12 [AZD-8186] | 1.94
13 | CC(=O)c1c(C)c2cnc(Nc3ccc(N4CCNCC4)cn3)nc2n(C2CCCC2)c1=O [palbociclib] | 3.12
14 | Cc1c(CN2CCN(C(=O)[C@H](C)O)CC2)sc2c(N3CCOCC3)nc(-c3cnc(N)nc3)nc12 [apitolisib] | 1.95
15 | CS(=O)(=O)CCNCc1ccc(-c2ccc3ncnc(Nc4ccc(OCc5cccc(F)c5)c(Cl)c4)c3c2)o1 [lapatinib] | 1.47
16 | CCOc1ccn(-c2ccc(F)cc2)c(=O)c1C(=O)Nc1ccc(Oc2ccnc(N)c2Cl)c(F)c1 [ASLAN002] | 1.11
17 | Nc1cc(C(F)(F)F)c(-c2cc(N3CCOCC3)nc(N3CCOCC3)n2)cn1 [buparlisib] | 1.92

Same assay, conditions: 12.5 pM; days in culture: 215

Row | Structure (SMILES) | CTG-3D luminescence at 96 h
18 | CC(C)n1nc(-c2ccc3oc(N)nc3c2)c2c(N)ncnc21 [sapanisertib] | 1.78
19 | C[C@@H](Nc1cc(F)cc(F)c1)c1cc(C(=O)N(C)C)cc2c(=O)cc(N3CCOCC3)oc12 [AZD-8186] | 1.9
20 | CC(=O)c1c(C)c2cnc(Nc3ccc(N4CCNCC4)cn3)nc2n(C2CCCC2)c1=O [palbociclib] | 1.93
21 | Cc1c(CN2CCN(C(=O)[C@H](C)O)CC2)sc2c(N3CCOCC3)nc(-c3cnc(N)nc3)nc12 [apitolisib] | 0.992
22 | CS(=O)(=O)CCNCc1ccc(-c2ccc3ncnc(Nc4ccc(OCc5cccc(F)c5)c(Cl)c4)c3c2)o1 [lapatinib] | 1.96
23 | CCOc1ccn(-c2ccc(F)cc2)c(=O)c1C(=O)Nc1ccc(Oc2ccnc(N)c2Cl)c(F)c1 [ASLAN002] | 1.3
24 | Nc1cc(C(F)(F)F)c(-c2cc(N3CCOCC3)nc(N3CCOCC3)n2)cn1 [buparlisib] | 1.75

Same assay, conditions: 0.00025 µM; days in culture: 173

Row | Structure (SMILES) | CTG-3D luminescence at 96 h
25 | CC(C)n1nc(-c2ccc3oc(N)nc3c2)c2c(N)ncnc21 [sapanisertib] | 0.967
26 | C[C@@H](Nc1cc(F)cc(F)c1)c1cc(C(=O)N(C)C)cc2c(=O)cc(N3CCOCC3)oc12 [AZD-8186] | 1.4
27 | CC(=O)c1c(C)c2cnc(Nc3ccc(N4CCNCC4)cn3)nc2n(C2CCCC2)c1=O [palbociclib] | 2.28
28 | Cc1c(CN2CCN(C(=O)[C@H](C)O)CC2)sc2c(N3CCOCC3)nc(-c3cnc(N)nc3)nc12 [apitolisib] | 1.25
29 | CS(=O)(=O)CCNCc1ccc(-c2ccc3ncnc(Nc4ccc(OCc5cccc(F)c5)c(Cl)c4)c3c2)o1 [lapatinib] | 2.33
30 | CCOc1ccn(-c2ccc(F)cc2)c(=O)c1C(=O)Nc1ccc(Oc2ccnc(N)c2Cl)c(F)c1 [ASLAN002] | 1.61
31 | Nc1cc(C(F)(F)F)c(-c2cc(N3CCOCC3)nc(N3CCOCC3)n2)cn1 [buparlisib] | 1.59

Same assay, conditions: 0.00025 µM; days in culture: 194

Row | Structure (SMILES) | CTG-3D luminescence at 96 h
32 | CC(C)n1nc(-c2ccc3oc(N)nc3c2)c2c(N)ncnc21 [sapanisertib] | 1.19
33 | C[C@@H](Nc1cc(F)cc(F)c1)c1cc(C(=O)N(C)C)cc2c(=O)cc(N3CCOCC3)oc12 [AZD-8186] | 1.36
34 | CC(=O)c1c(C)c2cnc(Nc3ccc(N4CCNCC4)cn3)nc2n(C2CCCC2)c1=O [palbociclib] | 1.02
35 | Cc1c(CN2CCN(C(=O)[C@H](C)O)CC2)sc2c(N3CCOCC3)nc(-c3cnc(N)nc3)nc12 [apitolisib] | 1.96
36 | CS(=O)(=O)CCNCc1ccc(-c2ccc3ncnc(Nc4ccc(OCc5cccc(F)c5)c(Cl)c4)c3c2)o1 [lapatinib] | 2.84
37 | CCOc1ccn(-c2ccc(F)cc2)c(=O)c1C(=O)Nc1ccc(Oc2ccnc(N)c2Cl)c(F)c1 [ASLAN002] | 1.59
38 | Nc1cc(C(F)(F)F)c(-c2cc(N3CCOCC3)nc(N3CCOCC3)n2)cn1 [buparlisib] | 1.72

Same assay, conditions: 0.00025 µM; days in culture: 215

Row | Structure (SMILES) | CTG-3D luminescence at 96 h
39 | CC(C)n1nc(-c2ccc3oc(N)nc3c2)c2c(N)ncnc21 [sapanisertib] | 1.21
40 | C[C@@H](Nc1cc(F)cc(F)c1)c1cc(C(=O)N(C)C)cc2c(=O)cc(N3CCOCC3)oc12 [AZD-8186] | 1.48
41 | CC(=O)c1c(C)c2cnc(Nc3ccc(N4CCNCC4)cn3)nc2n(C2CCCC2)c1=O [palbociclib] | 1.31
42 | Cc1c(CN2CCN(C(=O)[C@H](C)O)CC2)sc2c(N3CCOCC3)nc(-c3cnc(N)nc3)nc12 [apitolisib] | 1.33
43 | CS(=O)(=O)CCNCc1ccc(-c2ccc3ncnc(Nc4ccc(OCc5cccc(F)c5)c(Cl)c4)c3c2)o1 [lapatinib] | 2.03
44 | CCOc1ccn(-c2ccc(F)cc2)c(=O)c1C(=O)Nc1ccc(Oc2ccnc(N)c2Cl)c(F)c1 [ASLAN002] | 0.756
45 | Nc1cc(C(F)(F)F)c(-c2cc(N3CCOCC3)nc(N3CCOCC3)n2)cn1 [buparlisib] | 1.27

Same assay, conditions: 0.005 µM; days in culture: 173

Row | Structure (SMILES) | CTG-3D luminescence at 96 h
46 | CC(C)n1nc(-c2ccc3oc(N)nc3c2)c2c(N)ncnc21 [sapanisertib] | 1.48
47 | C[C@@H](Nc1cc(F)cc(F)c1)c1cc(C(=O)N(C)C)cc2c(=O)cc(N3CCOCC3)oc12 [AZD-8186] | 1.36
48 | CC(=O)c1c(C)c2cnc(Nc3ccc(N4CCNCC4)cn3)nc2n(C2CCCC2)c1=O [palbociclib] | 1.24
49 | Cc1c(CN2CCN(C(=O)[C@H](C)O)CC2)sc2c(N3CCOCC3)nc(-c3cnc(N)nc3)nc12 [apitolisib] | 0.933
50 | CS(=O)(=O)CCNCc1ccc(-c2ccc3ncnc(Nc4ccc(OCc5cccc(F)c5)c(Cl)c4)c3c2)o1 [lapatinib] | 1.14
51 | CCOc1ccn(-c2ccc(F)cc2)c(=O)c1C(=O)Nc1ccc(Oc2ccnc(N)c2Cl)c(F)c1 [ASLAN002] | 1.52
52 | Nc1cc(C(F)(F)F)c(-c2cc(N3CCOCC3)nc(N3CCOCC3)n2)cn1 [buparlisib] | 2.11

Same assay, conditions: 0.005 µM; days in culture: 194

Row | Structure (SMILES) | CTG-3D luminescence at 96 h
53 | CC(C)n1nc(-c2ccc3oc(N)nc3c2)c2c(N)ncnc21 [sapanisertib] | 1.63
54 | C[C@@H](Nc1cc(F)cc(F)c1)c1cc(C(=O)N(C)C)cc2c(=O)cc(N3CCOCC3)oc12 [AZD-8186] | 1.46
55 | CC(=O)c1c(C)c2cnc(Nc3ccc(N4CCNCC4)cn3)nc2n(C2CCCC2)c1=O [palbociclib] | 3.29
